How the values were obtained:
MAO-A [1] = biological target: T1, MAO-A (Homo sapiens, UniProt P21397); experiment: MAO-A inhibition assay (continuous, kynuramine); conditions: for remaining activity at 10 µM: read-out: Residual activity at 10 µM (%) MAO-A
T1 sequence (P21397 1-527): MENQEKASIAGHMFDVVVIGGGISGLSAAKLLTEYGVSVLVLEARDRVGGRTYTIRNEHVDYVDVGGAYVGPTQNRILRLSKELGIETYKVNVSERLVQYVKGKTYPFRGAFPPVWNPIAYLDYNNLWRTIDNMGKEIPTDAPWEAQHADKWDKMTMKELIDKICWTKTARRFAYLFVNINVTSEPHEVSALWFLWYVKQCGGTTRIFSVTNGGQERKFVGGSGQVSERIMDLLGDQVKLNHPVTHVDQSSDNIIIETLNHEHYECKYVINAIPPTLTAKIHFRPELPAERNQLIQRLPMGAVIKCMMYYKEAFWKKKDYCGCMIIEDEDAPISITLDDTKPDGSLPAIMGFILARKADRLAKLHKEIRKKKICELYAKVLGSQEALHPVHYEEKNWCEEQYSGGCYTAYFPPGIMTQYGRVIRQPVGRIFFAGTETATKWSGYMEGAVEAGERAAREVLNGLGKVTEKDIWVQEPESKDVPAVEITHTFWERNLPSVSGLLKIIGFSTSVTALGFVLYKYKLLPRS
Procedure: (§1) MAO-A and MAO-B activities were determined using 0.06 mM kynuramine and 0.3 mM benzylamine, respectively[39]. […] Concentrations of the substrates used were around 2.0 times of their Km values for the enzyme assay. The absorbance was measured using the continuous assay method described previously[40].
(§2) The selectivity index (SI) values of the compounds were calculated as follows: (IC50 of MAO-A)/(IC50 of MAO-B)[42].

MAO-B = biological target: T2, MAO-B (Homo sapiens, UniProt P27338); experiment: MAO-B inhibition assay (continuous, benzylamine); conditions: for remaining activity at 10 µM: read-out: Residual activity at 10 µM (%) MAO-B; for SI (selectivity index): (IC50 of MAO-A)/(IC50 of MAO-B), MAO-B compared to MAO-A
T2 sequence (P27338 1-520): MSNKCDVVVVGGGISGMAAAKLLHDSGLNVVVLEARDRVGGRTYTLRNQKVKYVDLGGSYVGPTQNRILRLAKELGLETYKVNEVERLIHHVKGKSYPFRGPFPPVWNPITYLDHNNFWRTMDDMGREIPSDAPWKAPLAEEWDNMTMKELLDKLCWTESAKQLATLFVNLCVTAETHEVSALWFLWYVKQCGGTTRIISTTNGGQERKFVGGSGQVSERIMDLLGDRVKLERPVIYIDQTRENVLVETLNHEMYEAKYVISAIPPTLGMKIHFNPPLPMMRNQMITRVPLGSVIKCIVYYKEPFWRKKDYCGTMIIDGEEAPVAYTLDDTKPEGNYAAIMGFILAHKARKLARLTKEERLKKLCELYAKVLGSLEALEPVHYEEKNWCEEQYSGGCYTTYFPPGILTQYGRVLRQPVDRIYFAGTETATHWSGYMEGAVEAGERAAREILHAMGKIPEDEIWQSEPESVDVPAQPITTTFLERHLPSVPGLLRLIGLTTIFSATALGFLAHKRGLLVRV
Procedure: as §1, §2

[2] = Parallel artificial membrane permeability assay (PAMPA), BBB; format: in vitro ADME; conditions: for Experimental Pe: pH 7.4; for Papp: pH 7.4, read-out: Experimental Pe
Procedure: The blood–brain barrier (BBB) permeation abilities of the four lead molecules were analyzed using the PAMPA method[44],[45]. The detailed procedure is explained in the Supplementary Data.
Using a microtiter plate with 96 wells and a Millipore filter plate with 96 wells (ipvh, 125 μm thick filter, 0.45 μm pore), which was then saturated with 0.1 mL of n-dodecane, a "sandwich" structure was created in PAMPA. Stock solutions of drug samples in DMSO were created at a 10 mM concentration. The stock solution was diluted in buffer at pH 7.4 before being added to a 96-well filter plate in order to achieve a final sample concentration (0.01, 0.1, and 1 mM) and keep the DMSO concentration at 1% (v/v). The final dilutions were divided into 270 μL for the donor wells and 200 μL of pH 7.4 buffer for the acceptor well. The donor plate was placed on the top of the acceptor filter plate to form a sandwich (comprising of a synthetic lipid membrane in the center, an aqueous receiver on […], and an aqueous donor carrying an analyte on the bottom.). The test substance diffuses from the donor well across the lipid membrane and into the acceptor well. The sandwich is said to have been intact when the penetration occurred. The drug concentration in the reference, donor, and receiver wells was measured using UV spectroscopy. The rate of penetration is calculated using the following expression.
Log Pe = -ln [1-CA /Equilibrium]/A× (1/VD + 1/VA) × t

ROS = ROS assay (DCF) in LPS-treated SH-SY5Y cells; format: cell-based, human
Procedure: (§3) Subcultures were performed every two days.
The OxiSelect Intracellular ROS Assay Kit (Cell Biolabs Inc., San Diego, CA, USA) was used to quantify the levels of the fluorescent probe 20,70-dichlorodihydrofluorescin diacetate (DCFH-DA).

CAT = experiment: Catalase (CAT) activity in LPS-induced SH-SY5Y cells; format: cell-based, human; conditions: 10 µM/mL
Procedure: as §3
CAT activity was determined according to Aebi[50]. A human CAT ELISA kit was purchased commercially (KrishGen Biosystems). Following treatment, the adherent cells were scraped off, suspended in cold PBS, sonicated, and placed on ice. The medium was then removed from each well. The 3 mL CAT assay combination comprised of extract (0.05 mL), phosphate buffer (1.5 mL, 100 mM buffer, pH 7.0), H2O2 (0.5 mL), and distilled water (0.95 mL). The absorbance decreased at 450 nm. CAT activity was reported in terms of ng/mL of H2O2 oxidized per min per gram[46]–[49].

MAO-A [3] = biological target: T1, MAO-A; experiment: Reversibility study by dialysis, MAO-A
Procedure: Reversibility test was performed by using Dialyzer DiaEasy™ (6–8 kDa, BioVision, St. Grove, MA, USA).

MAO-A [4] = biological target: T1, MAO-A; experiment: Enzyme kinetics, Lineweaver-Burk and secondary plots, MAO-A
Procedure: Enzyme inhibition patterns and Ki values were determined by comparing Lineweaver–Burk (LB) plots and their secondary plots, respectively[40].

TNF-α = TNF-α expression in LPS-induced SH-SY5Y cells; format: cell-based, human; conditions: LPS 1 µg/mL 2 h, compound 24 h, SH-SY5Y
NF-kB = NF-kB expression in LPS-induced SH-SY5Y cells
SOD = experiment: Superoxide dismutase (SOD) activity in LPS-induced SH-SY5Y cells; format: cell-based, human; conditions: 10 µM/mL
Procedure: Using a superoxide dismutase assay kit (KrishGen Biosystems, India), which measures the concentration of formazan crystals using a colorimetric assay, SOD activity was determined. In this test, a tetrazolium salt was used to detect the superoxide radicals produced by xanthine oxidase and hypoxanthine. After treatment, the medium was removed, centrifuged at 2000 rpm for 5 min at room temperature, and placed on ice. A diluted radical detector and lysed cell supernatant or a standard were applied to each well of a 96-well plate to evaluate SOD activity using an ELISA kit, according to the manufacturer’s instructions. The absorbance of the wells was then determined after 5 min at a wavelength of 450 nm using a microplate reader (Safire2, Tecan Group Ltd., Maennedorf, Switzerland).

GPx = experiment: Glutathione peroxidase (GPx) activity in LPS-induced SH-SY5Y cells; format: cell-based, human; conditions: 10 µM/mL
From the text: A GPx assay kit (KrishGen Biosystems) was used to evaluate the GPx activity. The kit uses a colorimetric assay to determine the quantity of GPx. Glutathione reductase (GR) mediates GPx activity Oxidized glutathione (GSSG) is produced via hydroperoxide reduction by GPx. This glutathione is recycled back to its reduced state by GR and NADPH. The NADPH to NADP + oxidation was accompanied by a decrease in absorbance at 450 nm (A450). When GPx activity was rate-limiting, the rate of decline in A450 was directly correlated with GPx activity. Following treatment, adherent cells were removed from the wells, suspended in cold PBS, sonicated, and frozen. In accordance with the ELISA kit’s instructions, the lysed cell supernatant, or standard, was applied to all 96 wells of a plate together with a diluted radical detector to assay the activity of GPx. A microplate reader was used to measure the absorbance of the wells after 5 min[46]–[49]. Results were obtained in ng/mL.

IL-6 = IL-6 expression in LPS-induced SH-SY5Y cells; format: cell-based, human; conditions: LPS 1 µg/mL 2 h, compound 24 h, SH-SY5Y

Structure (SMILES)	IC50 (MAO-A [1]) [µM]	remaining activity at 10 µM (MAO-A [1]) [%]	IC50 (MAO-B) [µM]	remaining activity at 10 µM (MAO-B) [%]	SI (selectivity index) (MAO-B)	Prediction (CNS permeation class) [2]	also measured
O=C1Nc2ccc(F)cc2/C1=N/NC(=O)c1ccccc1 [IS9]	> 40	67.4 ± 1	9.09 ± 1.28	45.6 ± 6.28	–	–	–
O=C1Nc2ccc(F)cc2/C1=N/NC(=O)c1ccc(Cl)cc1 [IS10]	18.3 ± 0.729	54.1 ± 0.78	3.99 ± 0.472	42.6 ± 0.82	4.58	–	–
O=C1Nc2ccc(F)cc2/C1=N/NC(=O)c1ccc(Br)cc1 [IS11]	13.7 ± 0.396	43.56 ± 0.42	10.6 ± 0.256	53.2 ± 2.6	1.30	–	–
O=C1Nc2ccc(F)cc2/C1=N/NC(=O)c1ccc(F)cc1 [IS12]	4.29 ± 0.552	36.6 ± 1.6	7.1 ± 0.956	44.3 ± 4.48	0.60	–	–
O=C1Nc2ccc(Cl)cc2/C1=N/NC(=O)c1ccccc1 [IS13]	–	–	–	–	–	CNS+ (Pe (10^−6 cm/s) > 4.00: CNS + (high permeation))	CNS/BBB permeability in words [2]: high permeability and CNS bioavailability; Experimental Pe [2]: > 4 ×10⁻⁶ cm/s; Papp [2]: 4.66 ± 0.18 ×10⁻⁶ cm/s
O=C1Nc2ccc(Cl)cc2/C1=N/NC(=O)c1ccc(Cl)cc1 [IS14]	11.3 ± 0.414	53.1 ± 0.91	0.234 ± 0.008	23 ± 2.48	48.15	–	–
O=C1Nc2ccc(Cl)cc2/C1=N/NC(=O)c1ccc(Br)cc1 [IS15]	1.85 ± 0.085	34.7 ± 0.71	0.337 ± 0.007	12.5 ± 3.64	5.50	CNS+ (Pe (10^−6 cm/s) > 4.00: CNS + (high permeation))	DCF intensity decrease at 10 µM (ROS; 10 µM/mL (10 µM), vs LPS-induced cells): effective DCF intensity decrease; DCF expression (ROS) vs cells treated with LPS alone (ROS; LPS-induced SH-SY5Y): significantly inhibited (p < 0.0001); CAT (cellular anti-oxidant enzyme) effect (CAT): enhancing the enzyme activity; Fold higher MAO-A inhibition than IS7 (MAO-A [1]; relative to IS7): 10.35 times; Fold higher MAO-A inhibition than IS13 (MAO-A [1]; relative to IS13): 11.94 times; Reversibility of MAO-A inhibition (MAO-A [3]): reversible-type inhibitors; Ki (MAO-A [4]): 1 ± 0.171 µM; Type of MAO-A inhibition (MAO-A [4]; LB plot): competitive; CNS/BBB permeability in words [2]: high permeability and CNS bioavailability; Experimental Pe [2]: > 4 ×10⁻⁶ cm/s; Papp [2]: 4.39 ± 0.3 ×10⁻⁶ cm/s; TNF-alpha level vs LPS-treated group (TNF-α): significantly (p < 0.0001) reduced; NF-kB level vs LPS-treated group (NF-kB; LPS 1 µg/mL 2 h, compound 24 h, SH-SY5Y): significantly (p < 0.0001) reduced; NF-kB expression compared to IS6 and IS7 (NF-kB; LPS-treated cell lines): significantly lower; SOD (cellular anti-oxidant enzyme) effect (SOD): enhancing the enzyme activity; GPx (cellular anti-oxidant enzyme) effect (GPx): enhancing the enzyme activity; IL-6 level vs LPS-treated group (IL-6): significantly (p < 0.0001) reduced
O=C1Nc2ccc(Cl)cc2/C1=N/NC(=O)c1ccc(F)cc1 [IS16]	8.45 ± 0.395	43.7 ± 1.65	3.85 ± 0.392	26.1 ± 4.39	2.20	–	–
C#CCN(C)[C@H](C)Cc1ccccc1 [Selegiline, reference compound]	–	–	–	–	–	CNS+ (Pe (10^−6 cm/s) > 4.00: CNS + (high permeation))	–
